# In patent US11046699B2, “Pyrazolo-pyrimidin-amino-cycloalkyl compounds and their therapeutic uses” (RAPT THERAPEUTICS, INC., priority 2018, dated 2021):
# pIC50: −log10 of the molar value. Like-named read-outs stand apart in the source and are kept apart here.
# Biological target: GCN2 (Homo sapiens, UniProt Q9P2K8)
# Experiment: GCN2 enzymatic endpoint assay: phosphorylation of GFP-eIF2α measured by TR-FRET (Lanthascreen)
# Assay type: biochemical
# Method in brief: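 Kinase activity is measured as phosphorylation of GFP-labelled eIF2α (80 nM) with ATP at 2 μM. Incubation runs 90 minutes at room temperature before EDTA quench and terbium-antibody detection.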
# [1] = tested as described in Example 77, compound and/or hydrochloride, dihydrochloride or trifluoroacetic acid salt, read-out: IC 50 Activity
# [2] = GCN2 biochemical IC50, 4 nM GCN2, 2 μM ATP, 80 nM GFP-eIF2α, 90 min RT, read-out: GCN2 activity
# GCN2, sequence (Q9P2K8 whole entry): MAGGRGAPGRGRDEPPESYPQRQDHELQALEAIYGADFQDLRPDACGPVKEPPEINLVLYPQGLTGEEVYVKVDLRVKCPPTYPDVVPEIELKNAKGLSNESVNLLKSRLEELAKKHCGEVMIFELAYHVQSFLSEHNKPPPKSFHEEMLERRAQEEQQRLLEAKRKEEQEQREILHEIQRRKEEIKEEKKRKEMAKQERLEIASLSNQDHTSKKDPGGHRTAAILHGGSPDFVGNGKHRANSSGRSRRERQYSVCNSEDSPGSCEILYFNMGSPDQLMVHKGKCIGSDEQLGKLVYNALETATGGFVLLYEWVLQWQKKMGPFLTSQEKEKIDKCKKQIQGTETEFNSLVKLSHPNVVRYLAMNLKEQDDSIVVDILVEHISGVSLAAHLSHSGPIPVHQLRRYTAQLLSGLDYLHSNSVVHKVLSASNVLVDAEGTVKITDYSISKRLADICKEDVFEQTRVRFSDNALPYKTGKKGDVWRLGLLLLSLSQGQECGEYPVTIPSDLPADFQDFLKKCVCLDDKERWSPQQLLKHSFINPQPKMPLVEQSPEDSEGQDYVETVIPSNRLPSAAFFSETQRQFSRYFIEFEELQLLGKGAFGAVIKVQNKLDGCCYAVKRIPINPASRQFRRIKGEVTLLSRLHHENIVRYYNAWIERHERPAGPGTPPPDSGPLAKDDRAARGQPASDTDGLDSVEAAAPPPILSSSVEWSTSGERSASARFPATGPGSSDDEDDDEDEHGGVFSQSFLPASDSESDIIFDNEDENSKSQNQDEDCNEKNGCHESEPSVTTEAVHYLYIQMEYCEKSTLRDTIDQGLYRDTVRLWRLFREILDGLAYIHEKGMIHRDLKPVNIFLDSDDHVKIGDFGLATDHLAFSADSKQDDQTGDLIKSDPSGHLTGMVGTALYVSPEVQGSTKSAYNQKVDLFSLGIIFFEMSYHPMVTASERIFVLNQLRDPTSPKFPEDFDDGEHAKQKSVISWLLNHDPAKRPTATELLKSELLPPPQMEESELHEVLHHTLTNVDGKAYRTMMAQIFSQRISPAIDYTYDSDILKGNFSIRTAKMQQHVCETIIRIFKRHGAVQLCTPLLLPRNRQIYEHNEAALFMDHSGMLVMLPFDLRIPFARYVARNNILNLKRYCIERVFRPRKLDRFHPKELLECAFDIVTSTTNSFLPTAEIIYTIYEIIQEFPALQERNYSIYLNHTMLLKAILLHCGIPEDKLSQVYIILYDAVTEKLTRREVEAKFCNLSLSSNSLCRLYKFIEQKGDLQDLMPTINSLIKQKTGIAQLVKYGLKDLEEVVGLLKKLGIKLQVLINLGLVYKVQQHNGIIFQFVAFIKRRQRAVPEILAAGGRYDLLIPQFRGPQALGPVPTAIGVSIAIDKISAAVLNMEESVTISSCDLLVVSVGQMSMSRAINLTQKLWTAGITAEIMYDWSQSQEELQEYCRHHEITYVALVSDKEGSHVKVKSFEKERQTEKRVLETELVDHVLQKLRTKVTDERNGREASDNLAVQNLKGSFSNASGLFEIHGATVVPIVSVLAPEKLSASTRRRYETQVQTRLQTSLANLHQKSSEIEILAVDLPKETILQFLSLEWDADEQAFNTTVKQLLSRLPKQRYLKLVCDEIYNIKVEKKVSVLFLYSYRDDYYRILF
SMILES,pIC50 [1],pIC50 [2]
"CNC(=O)[C@]1(C)CC[C@@H](Nc2ncc3c(Br)nn(-c4ccc(-c5nnc(C)s5)c(OCC#N)c4)c3n2)C1 [(1R,3R)-3-[[3-bromo-1-[3-(cyanomethoxy)-4-(5-methyl-1,3,4-thiadiazol-2-yl)phenyl]pyrazolo[3,4-d]pyrimidin-6-yl]amino]-N,1-dimethyl-cyclopentanecarboxamide]",6.70 to 7.60,–
CNC(=O)C1(C)CC[C@@H](Nc2ncc3c(Br)nn(-c4cc(CO)cc(C(C)(C)C)c4)c3n2)C1 (some centres unmarked),6.70 to 7.60,–
"CNC(=O)[C@]1(C)CC[C@@H](Nc2ncc3c(Br)nn(-c4ccc5c(c4)CCC(=O)N5CCO)c3n2)C1 [(1R,3R)-3-[[3-bromo-1-[1-(2-hydroxy-ethyl)-2-oxo-3,4-dihydroquinolin-6-yl]pyrazolo[3,4-d]pyrimidin-6-yl]amino]-N,1-dimethyl-cyclopentanecarboxamide]",6.70 to 7.60,–
"O=C([C@@H]1CC[C@@H](Nc2ncc3c(Br)nn(-c4ccc5ncccc5c4)c3n2)C1)N1CCN(CCO)CC1 [((1R,3R)-3-((3-bromo-1-(quinolin-6-yl)-1H-pyrazolo[3,4-d]pyrimidin-6-yl)amino)cyclopentyl)(4-(2-hydroxyethyl)piperazin-1-yl)methanone]",6.70 to 7.60,–
"CNC(=O)[C@]1(C)CC[C@@H](Nc2ncc3c(Br)nn(-c4cc(CCNS(C)(=O)=O)c5ncccc5c4)c3n2)C1 [(1R,3R)-3-[[3-bromo-1-[8-[2-(methane-sulfonamido)ethyl]-6-quinolyl]pyrazolo [3,4-d]pyrimidin-6-yl]amino]-N,1-dimethyl-cyclopentanecarboxamide]",6.70 to 7.60,–
"CNC(=O)[C@@H]1CC[C@@H](Nc2ncc3c(Br)nn(-c4cc(F)c5ncccc5c4)c3n2)C1 [Example 8, (1R,3R)-3-((3-bromo-1-(8-fluoroquinolin-6-yl)-1H-pyrazolo[3,4-d]pyrimidin-6-yl)amino)-N-methylcyclopentane-1-carboxamide]",–,6.70 to 7.60
"CN1CCN(C(=O)[C@@H]2CC[C@@H](Nc3ncc4c(Br)nn(-c5ccc(N6CCOCC6)c(C#N)c5)c4n3)C2)CC1=O [Example 9, 5-(3-bromo-6-(((1R,3R)-3-(4-methyl-3-oxopiperazine-1-carbonyl)cyclopentyl)amino)-1H-pyrazolo[3,4-d]pyrimidin-1-yl)-2-morpholinobenzonitrile]",–,6.30 to 6.70
Cc1nnc(-c2ccc(-n3nc(Br)c4cnc(NC5CCC(CN(C)C)(C(=O)O)C5)nc43)cc2)s1 (centres unmarked),6.70 to 7.60,–
"CNC(=O)[C@]1(C)CC[C@@H](Nc2ncc3c(Br)nn(-c4ccc5c(c4)C(C)(C)CO5)c3n2)C1 [(1R,3R)-3-[[3-bromo-1-(3,3-dimethyl-2H-benzofuran-5-yl)pyrazolo[3,4-d]pyrimidin-6-yl]amino]-N,1-dimethyl-cyclopentane-carboxamide]",6.70 to 7.60,–
CNC(=O)[C@]1(C)CC[C@@H](Nc2ncc3c(Br)nn(-c4cc(CCN)c5cnccc5c4)c3n2)C1,> 7.60,–
"CNC(=O)[C@]1(C)CC[C@@H](Nc2ncc3c(I)nn(-c4cc(F)c5ncccc5c4)c3n2)C1 [Example 31, (1R,3R)-3-((1-(8-fluoroquinolin-6-yl)-3-iodo-1H-pyrazolo[3,4-d]pyrimidin-6-yl)amino)-N,1-dimethylcyclopentane-1-carboxamide; 2,2,2-trifluoroacetic acid]",–,> 7.60
"O=C([C@@H]1CC[C@@H](Nc2ncc3c(Br)nn(-c4cc(F)c5ncccc5c4)c3n2)C1)N1CCS(=O)(=O)CC1 [((1R,3R)-3-((3-bromo-1-(8-fluoroquinolin-6-yl)-1H-pyrazolo[3,4-d]pyrimidin-6-yl)amino)cyclopentyl)(1,1-dioxidothio-morpholino)methanone]",6.70 to 7.60,–
"CNC(=O)N1CC[C@@H](Nc2ncc3c(Br)nn(-c4ccc(-c5nnc(C)s5)cc4)c3n2)C1 [(3R)-3-[[3-bromo-1-[4-(5-methyl-1,3,4-thiadiazol-2-yl)phenyl]pyrazolo [3,4-d]pyrimidin-6-yl]amino]-N-methyl-pyrrolidine-1-carboxamide]",6.70 to 7.60,–
"O=C(N[C@@H]1CNC[C@H]1F)[C@@H]1CC[C@@H](Nc2ncc3c(Br)nn(-c4cc(F)c5ncccc5c4)c3n2)C1 [(1R,3R)-3-((3-bromo-1-(8-fluoroquinolin-6-yl)-1H-pyrazolo[3,4-d]pyrimidin-6-yl)amino)-N-((3R,4R)-4-fluoropyrrolidin-3-yl)cyclo-pentane-1-carboxamide]",6.70 to 7.60,–
"C[C@@H]1C(=O)N(C)CCN1C(=O)[C@@H]1CC[C@@H](Nc2ncc3c(Br)nn(-c4cc(C#N)c5ncccc5c4)c3n2)C1 [6-[3-bromo-6-[[(1R,3R)-3-[(2R)-2,4-dimethyl-3-oxo-piperazine-1-carbonyl]cyclopentyl]amino]pyrazolo[3,4-d]pyrimidin-1-yl] quinoline-8-carbonitrile]",> 7.60,–
Cc1nnc(-c2ccc(-n3nc(Br)c4cnc(N[C@@H]5CCC(S(=O)(=O)NCCC#N)C5)nc43)cc2)s1 (some centres unmarked),6.70 to 7.60,–
"CC(=O)OCC(=O)N1CCN(C(=O)[C@@H]2CC[C@@H](Nc3ncc4c(Br)nn(-c5cc(C#N)c6ncccc6c5)c4n3)C2)CC1 [2-(4-((1R,3R)-3-((3-bromo-1-(8-cyanoquinolin-6-yl)-1H-pyrazolo[3,4-d]pyrimidin-6-yl)amino)cyclopentane-1-carbonyl)piperazin-1-yl)-2-oxoethyl acetate]",> 7.60,–
"CNC(=O)[C@]1(C)CC[C@@H](Nc2ncc3c(Br)nn(-c4ccc5c(c4)CN(C(=O)C4CNC4)C5)c3n2)C1 [(1R,3R)-3-[[1-[2-(azetidine-3-carbonyl)isoindolin-5-yl]-3-bromo-pyrazolo[3,4-d]pyrimidin-6-yl]amino]-N,1-dimethyl-cyclopentanecarboxamide]",6.70 to 7.60,–
"CNC(=O)[C@]1(C)CC[C@@H](Nc2ncc3c(Br)nn(-c4ccc(-c5nnc(C(F)F)o5)cc4)c3n2)C1 [(1R,3R)-3-[[3-bromo-1-[4-[5-(difluoro-methyl)-1,3,4-oxadiazol-2-yl]phenyl]pyrazolo[3,4-d]pyrimidin-6-yl]amino]-N,1-dimethyl-cyclopentanecarboxamide]",6.70 to 7.60,–
"CN1CCN(C(=O)[C@@H]2CC[C@@H](Nc3ncc4c(Br)nn(-c5cc(F)c6ncccc6c5)c4n3)C2)CC1=O [4-((1R,3R)-3-((3-bromo-1-(8-fluoroquinolin-6-yl)-1H-pyrazolo[3,4-d]pyrimidin-6-yl)amino)cyclopentane-1-carbonyl)-1-methyl-piperazin-2-one]",6.70 to 7.60,–
"Cc1nnc(-c2ccc(-n3nc(Br)c4cnc(N[C@@H]5CC[C@@H](C(=O)N6CCN(C)C(=O)C6)C5)nc43)cc2F)o1 [4-((1R,3R)-3-((3-bromo-1-(3-fluoro-4-(5-methyl-1,3,4-oxadiazol-2-yl)phenyl)-1H-pyrazolo[3,4-d]pyrimidin-6-yl)amino)cyclo-pentane-1-carbonyl)-1-methylpiperazin-2-one]",6.70 to 7.60,–
"O=C(NC1COC1)[C@@H]1CC[C@@H](Nc2ncc3c(Br)nn(-c4ccc5ncccc5c4)c3n2)C1 [(1R,3R)-3-((3-bromo-1-(quinolin-6-yl)-1H-pyrazolo[3,4-d]pyrimidin-6-yl)amino)-N-(oxetan-3-yl)cyclopentane-1-carboxamide]",6.70 to 7.60,–
"CNC(=O)[C@]1(C)CC[C@@H](Nc2ncc3c(Br)nn(-c4ccc5nc(N6CCOCC6)ncc5c4)c3n2)C1 [(1R,3R)-3-[[3-bromo-1-(2-morpholino-quinazolin-6-yl)pyrazolo[3,4-d]pyrimidin-6-yl]amino]-N,1-dimethyl-cyclopentane-carboxamide; 2,2,2-trifluoroacetic acid]",6.70 to 7.60,–
